The text below walks through data of publication PMC6792352, “Limited Chemical Structural Diversity Found to Modulate Thyroid Hormone Receptor in the Tox21 Chemical Library” (Environmental Health Perspectives, 2019).

What is called CC50 is the concentration at which the toxic effect on the cells reaches its halfway point.

The structures appear in SMILES notation. Counter-ions that a name gives are not always drawn.

A short description of the first data set: in vitro. Particulars: rat, gh3-tre-luc cells, AC50 (uM) modified / 1000.
In turn, `Nc1ccc(S(=O)(=O)Nc2ccnn2-c2ccccc2)cc1` [Sulfaphenazole] showed a CC50 at 24 h of more than 20 µM. With `Nc1ccc(S(=O)(=O)Nc2ccccn2)cc1` [Sulfapyridine], the half-maximal cytotoxic concentration (CC50) at 24 h is more than 20 µM. On to `Nc1ccc(S(=O)(=O)Nc2cnc3ccccc3n2)cc1` [Sulfaquinoxaline], for which the CC50 at 24 h is more than 90 µM. Same read-out and setting: in the case of `O=C(O)c1cc(/N=N/c2ccc(S(=O)(=O)Nc3ccccn3)cc2)ccc1O` [Sulfasalazine] it was more than 90 µM; in that of `NS(=O)(=O)c1ccc(NC(=O)CCC(=O)O)cc1` [Sulfasuccinamide], more than 50 µM. The same measure, in the same setting: the value for `NC(=S)NS(=O)(=O)c1ccc(N)cc1` [Sulfathiourea] was more than 50 µM; that for `Cc1nn(-c2cc(NS(C)(=O)=O)c(Cl)cc2Cl)c(=O)n1C(F)F` [Sulfentrazone] was more than 90 µM; that for `O=C1C(CC[S+]([O-])c2ccccc2)C(=O)N(c2ccccc2)N1c1ccccc1` (stereo not shown) [Sulfinpyrazone] was more than 20 µM. Still for that read-out and setting: in the case of `Cc1cc(NS(=O)(=O)c2ccc(N)cc2)nc(C)n1` [Sulfisomidine] it was more than 50 µM; in that of `Cc1noc(NS(=O)(=O)c2ccc(N)cc2)c1C` [Sulfisoxazole], more than 50 µM; in that of `O=C1OC(c2ccc(O)c(S(=O)(=O)O)c2)(c2ccc(O)c(S(=O)(=O)O)c2)c2c(Br)c(Br)c(Br)c(Br)c21` [Sulfobromophthalein], more than 50 µM. For `O=S1(=O)CCCC1` [Sulfolane], the CC50 at 24 h was more than 90 µM. Still for that read-out and setting: in the case of `O=C(O)CC(C(=O)O)S(=O)(=O)O` (stereo not shown) [Sulfosuccinic acid] it was more than 90 µM. As to `CCCCCCCCCOS(=O)(=O)O` [Sulfuric acid, monononyl ester, sodium salt], the CC50 at 24 h is more than 90 µM. The same measure, in the same setting: the value for `CSc1ccc(/C=C2/C(C)=C(CC(=O)O)c3cc(F)ccc32)cc1` [Sulindac sulfide] was more than 50 µM; that for `CC1=C(CC(=O)O)c2cc(F)ccc2/C1=C\c1ccc(S(C)(=O)=O)cc1` [Sulindac sulfone] was more than 50 µM. The same measure, in the same setting: the value for `CC1=C(CC(=O)O)c2cc(F)ccc2/C1=C\c1ccc([S+](C)[O-])cc1` (stereo not shown) [Sulindac] was more than 90 µM; that for `COc1cc(O)c(C(=O)c2ccccc2)cc1S(=O)(=O)O` [Sulisobenzone] was more than 90 µM. For `COc1cc([S+](C)[O-])ccc1-c1nc2ncccc2[nH]1` (stereo not shown) [Sulmazole], the CC50 at 24 h was more than 50 µM. The same measure, in the same setting: in the case of `CCN1CCCC1CNC(=O)c1cc(S(N)(=O)=O)ccc1OC` (stereo not shown) [Sulpiride] it was more than 90 µM.

As for `CS(=O)(=O)NC(=O)CCC/C=C\C[C@H]1C(=O)C[C@@H](O)[C@@H]1/C=C/[C@@H](O)COc1ccccc1` [Sulprostone], the CC50 at 24 h is more than 50 µM. Same read-out and setting: the value for `CC1(C)S[C@@H]2[C@H](NC(=O)[C@H](N)c3ccccc3)C(=O)N2[C@H]1C(=O)OCOC(=O)[C@@H]1N2C(=O)C[C@H]2S(=O)(=O)C1(C)C` [Sultamicillin tosylate] was more than 50 µM; that for `CCN1CCCC1CNC(=O)c1cc(S(=O)(=O)CC)ccc1OC` (stereo not shown) [Sultopride hydrochloride] was more than 50 µM; that for `CNS(=O)(=O)Cc1ccc2[nH]cc(CCN(C)C)c2c1` [Sumatriptan] was more than 50 µM.

In the case of `CCN(CC)CCNC(=O)c1c(C)[nH]c(/C=C2\C(=O)Nc3ccc(F)cc32)c1C` [Sunitinib malate], the CC50 at 24 h worked out at 20.1 µM. Still for that read-out and setting: the value for `CCOCC(O)COc1ccc(NC(=O)CC[S+](C)C)cc1` (stereo not shown) [Suplatast tosylate] was more than 50 µM; that for `CC(C(=O)O)c1ccc(C(=O)c2cccs2)cc1` (stereo not shown) [Suprofen] was more than 20 µM; that for `Cc1ccc(C(=O)Nc2ccc(S(=O)(=O)O)c3cc(S(=O)(=O)O)cc(S(=O)(=O)O)c23)cc1NC(=O)c1cccc(NC(=O)Nc2cccc(C(=O)Nc3cc(C(=O)Nc4ccc(S(=O)(=O)O)c5cc(S(=O)(=O)O)cc(S(=O)(=O)O)c45)ccc3C)c2)c1` [Suramin] was more than 50 µM. `CCc1c(C(=O)NN2CCCCC2)nn(-c2ccc(Cl)cc2Cl)c1-c1ccc(Br)cc1` [Surinabant] yielded a CC50 at 24 h of 12.3 µM. With `COC(=O)Nc1ccc(Cl)c(Cl)c1` [Swep], the CC50 at 24 h was more than 90 µM. `CCOC(=O)Oc1c(OC)cc(C(=O)O[C@@H]2C[C@@H]3CN4CCc5c([nH]c6cc(OC)ccc56)[C@H]4C[C@@H]3[C@H](C(=O)OC)[C@H]2OC)cc1OC` [Syrosingopine] had a CC50 at 24 h of more than 20 µM.

For `Cc1ccc(OP(=O)(Oc2ccc(C)cc2C)Oc2ccc(C)cc2C)c(C)c1` [TXP], the CC50 at 24 h was more than 100 µM. Same read-out and setting: the value for `C=CC[C@@H]1/C=C(\C)C[C@H](C)C[C@H](OC)[C@H]2O[C@@](O)(C(=O)C(=O)N3CCCC[C@H]3C(=O)O[C@H](/C(C)=C/[C@@H]3CC[C@@H](O)[C@H](OC)C3)[C@H](C)[C@@H](O)CC1=O)[C@H](C)C[C@@H]2OC` [Tacrolimus] was more than 50 µM; that for `CN1CC(=O)N2[C@H](c3ccc4c(c3)OCO4)c3[nH]c4ccccc4c3C[C@@H]2C1=O` [Tadalafil] was more than 50 µM; that for `CC1(C)S[C@@H]2[C@H](NC(=O)[C@H](N)c3ccccc3)C(=O)N2[C@H]1C(=O)OC1OC(=O)c2ccccc21` (stereo partly shown) [Talampicillin hydrochloride] was more than 20 µM.

The compound `CC(C)(C)NCC(O)COc1ccc(NC(=O)NC2CCCCC2)cc1` (stereo not shown) [Talinolol] yielded a half-maximal cytotoxic concentration (CC50) at 24 h of more than 50 µM. The same measure, in the same setting: the value for `C=CCN1CCc2nc(N)sc2CC1` [Talipexole] was more than 50 µM. For the compound `O=C1OC(OC(=O)c2cccnc2Nc2cccc(C(F)(F)F)c2)c2ccccc21` (stereo not shown) [Talniflumate], the CC50 at 24 h is more than 50 µM.

The compound `CN1C(=O)C[C@@H](C(=O)N[C@@H](Cc2c[nH]cn2)C(=O)N2CCC[C@H]2C(N)=O)NC1=O` [Taltirelin] registered a CC50 at 24 h of more than 50 µM. On the same count and under the same terms, the value for `CC1(C)CCC(C)(C)c2cc(NC(=O)c3ccc(C(=O)O)cc3)ccc21` [Tamibarotene] was 15.4 µM; that for `CCOc1ccccc1OCCN[C@H](C)Cc1ccc(OC)c(S(N)(=O)=O)c1` [Tamsulosin hydrochloride] was more than 50 µM; that for `O=C1[C@@H]2[C@H]3CC[C@H](C3)[C@@H]2C(=O)N1CCCCN1CCN(c2ncccn2)CC1` [Tandospirone] was more than 50 µM. Turning to `COc1cc2c(N3CCN(C(=O)Nc4ccc(OC(C)C)cc4)CC3)ncnc2cc1OCCCN1CCCCC1` [Tandutinib], it took 11.4 µM to reach half-maximal cytotoxicity (CC50 at 24 h). The compound `C=CCNC1=C2C[C@@H](C)C[C@H](OC)[C@H](O)[C@@H](C)/C=C(\C)[C@H](OC(N)=O)[C@@H](OC)/C=C\C=C(/C)C(=O)NC(=CC1=O)C2=O` [Tanespimycin] registered a CC50 at 24 h of more than 50 µM. Still for that read-out and setting: the value for `O=C(O)c1cccc(/C=C2/C[C@@H]3[C@@H](/C=C/[C@@H](O)C4CCCCC4)[C@H](O)C[C@@H]3O2)c1` [Taprostene sodium salt] was more than 50 µM; that for `CCCCOC(=O)C(=O)Nc1cccc(-c2nnn[nH]2)c1` [Tazanolast] was more than 50 µM; that for `CCOC(=O)c1ccc(C#Cc2ccc3c(c2)C(C)(C)CCS3)nc1` [Tazarotene] was more than 50 µM. On the same count and under the same terms, in the case of `C[C@]1(Cn2ccnn2)[C@H](C(=O)O)N2C(=O)C[C@H]2S1(=O)=O` [Tazobactam sodium] it was more than 50 µM; in that of `CCc1ccc(C(=O)NN(C(=O)c2cc(C)cc(C)c2)C(C)(C)C)cc1` [Tebufenozide], 2.75 µM; in that of `CCc1nn(C)c(C(=O)NCc2ccc(C(C)(C)C)cc2)c1Cl` [Tebufenpyrad], 53.4 µM. Still for that read-out and setting: in the case of `O=C(NC(=O)c1c(F)cccc1F)Nc1cc(Cl)c(F)c(Cl)c1F` [Teflubenzuron] it was more than 80 µM; in that of `O=c1[nH]c(=O)n([C@H]2CCCO2)cc1F` [Tegafur], more than 90 µM; in that of `CCCCCNC(=N)N/N=C/c1c[nH]c2ccc(OC)cc12` [Tegaserod], more than 50 µM. The compound `Cc1scc2c1N(C(=O)CN1CCN(C)CC1)c1ccccc1NC2=O` [Telenzepine] returned a CC50 at 24 h of more than 50 µM.

Staying with this data set, now noted: rat, gh3-tre-luc cells, AC50 (uM) modified / 1000, Tox21_110001=Tox21_112058; viability, 1 nM T3 present, 24 h.
In turn, `O[C@H]1[C@H]2[C@H](O)CCCN2C[C@H]1O` [Swainsonine] showed a CC50 at 24 h of more than 50 µM.

The data set is the same for the next values; noted with them: rat, gh3-tre-luc cells, AC50 (uM) modified / 1000, Tox21_110001=Tox21_112103; viability, 1 nM T3 present, 24 h.
The compound `O=c1n(Cl)c(=O)n(Cl)c(=O)n1Cl` [Symclosene] displayed a CC50 at 24 h of more than 50 µM.

The data set is the same for the next values; noted with them: rat, gh3-tre-luc cells, AC50 (uM) modified / 1000, Tox21_110001=Tox21_112150; viability, 1 nM T3 present, 24 h.
`CCS(=O)(=O)C(C)(C)S(=O)(=O)CC` [Sulfonmethane] registered a cytotoxic concentration (CC50) at 24 h of more than 50 µM.

Still in this data set, the particulars now being: rat, gh3-tre-luc cells, AC50 (uM) modified / 1000, Tox21_110001=Tox21_112153; viability, 1 nM T3 present, 24 h.
Regarding `CCC(C)(S(=O)(=O)CC)S(=O)(=O)CC` [Sulfonethylmethane], the CC50 at 24 h was more than 50 µM.

Still in this data set, the particulars now being: rat, gh3-tre-luc cells, AC50 (uM) modified / 1000, Tox21_110001=Tox21_200290; viability, 1 nM T3 present, 24 h.
Consider `ClC1=C(Cl)C2(Cl)C3C(Cl)C(Cl)CC3C1(Cl)C2(Cl)Cl` (stereo not shown) [Technical chlordane], for which the CC50 at 24 h is 27.8 µM.

The data set is the same for the next values; noted with them: rat, gh3-tre-luc cells, AC50 (uM) modified / 1000, Tox21_110001=Tox21_201451; viability, 1 nM T3 present, 24 h.
Consider `CNC(=O)N(C)c1nnc(C(C)(C)C)s1` [Tebuthiuron], for which the CC50 at 24 h was more than 90 µM.

Staying with this data set, now noted: rat, gh3-tre-luc cells, AC50 (uM) modified / 1000, Tox21_110001=Tox21_201756; viability, 1 nM T3 present, 24 h.
On to `CCOP(=S)(OCC)OP(=S)(OCC)OCC` [Sulfotepp], for which the CC50 at 24 h was more than 90 µM.

The data set is the same for the next values; noted with them: rat, gh3-tre-luc cells, AC50 (uM) modified / 1000, Tox21_110001=Tox21_300858; viability, 1 nM T3 present, 24 h.
For `O=c1n(Cl)c(=O)n(Cl)c(=O)n1Cl` [Symclosene], the CC50 at 24 h was more than 90 µM.

The same data set, now with this note: rat, gh3-tre-luc cells, AC50 (uM) modified / 1000, Tox21_110001=Tox21_300965; viability, 1 nM T3 present, 24 h.
As to `CCOP(=S)(Oc1cnc(C(C)(C)C)nc1)OC(C)C` (stereo not shown) [Tebupirimfos], the midpoint of cytotoxicity, the CC50 at 24 h, lay at 52.3 µM.

Still in this data set, the particulars now being: rat, gh3-tre-luc cells, AC50 (uM) modified / 1000, Tox21_110001=Tox21_301843; viability, 1 nM T3 present, 24 h.
`COC(=O)c1ccccc1S(=O)(=O)NC(=O)Nc1nc(C)cc(C)n1` [Sulfometuron-methyl] showed a CC50 at 24 h of more than 90 µM.
